According to US11744273B2, “Sweetness enhancing volatile compositions and methods of increasing perceived sweetness of a comestible” (University of Florida Research Foundation, Inc., priority 2016, dated 2023):

test system: perceived sweetness intensity; test: Strawberry consumer panel; initial multiple regression of volatiles against perceived sweetness intensity independent of glucose, fructose or sucrose (Table 5); format: in vivo, human; details: initial step-wise multiple regression
Experimental: Step-wise multiple regressions of all volatile compounds against perceived intensity of sweetness is performed independent of either glucose, fructose, or sucrose concentration, separately (Table 5).
At least 100 grams or seven berries of each sample were removed from 4° C. dark overnight storage prior to volatile collection. Samples were homogenized in a blender prior to splitting into three 15 gram replicates for immediate capturing of volatile emission and remainder of sample frozen in N2 (I) and stored at −80° C. for later sugar and acid quantification.
Oven temperatures programmed from 40° C. (0.5 min hold) at 5° C. min^−1 to 250° C. (4 min hold). Signals captured with a flame ionization detector (FID) at 280° C. Peaks from FID signal were integrated manually with Chemstation B.04.01 software (Agilent Technologies, Santa Clara, Calif.). Volatile emission (ng gFW^−1 h^−1) calculated based on individual peak area relative to sample elution standard peak area.
All consumer panels were approved by the University of Florida Institutional Review Board. […] Ages of panelist ranged from 18 to 71, with a median age of 24. Panelists self-classified themselves as 98 White or Caucasian, 11 Black or African-American, 1 Native American, Alaska Native or Aleutian, 41 Asian/Pacific Islander, and 15 Other. […] Fresh, fully-ripe strawberry fruit was removed from overnight 4° C. dark storage and allowed to warm to room temperature prior to sensory analysis. Each panelist was given one to two whole strawberries for evaluation, depending on cultivar availability. Panelist took a bite of each sample, chewed, and swallowed it. Ratings for overall liking and liking for texture were scaled on hedonic general labeled magnitude scale (gLMS) in the context of all pleasure/displeasure experiences. […] Scales were employed to mediate valid comparisons across subjects and sessions.
For the first analysis, individual volatile compound concentrations were regressed using the “enter” method in SPSS Statistics (IBM Corp, Armonk, N.Y., USA).

For `C=CC(=O)CC` [1-penten-3-one], the “relation to sweetness intensity independent of sugars” value (shortened to “relation”) was “enhance sweetness intensity”.
With `CCCCCCCC(=O)OCC` [106-32-1, ethyl octanoate] the “relation” value was “negatively related to sweetness”.
With `CC(=O)CC(C)C` [108-10-1, 4-Methyl-2-pentanone] the “relation” value was “negatively related to sweetness”.
`CCCCCOC(=O)CCC` [540-18-1, pentyl butyrate] was tested, and the “relation” value was “enhance sweetness intensity”.
For `CCCCCCCCC1CCC(=O)O1` (stereo not drawn) [2305-05-7, 5-octyldihydro-2(3H)-furanone], the “relation” value was “enhance sweetness intensity”.
For `CCCCCCOC(=O)CCC` [2639-63-6, hexyl butyrate], the “relation” value was “enhance sweetness intensity”.

same assay, conditions: standard least squares, sweetness intensity independent of fructose

In order of rising “FRUCTOSE t RATIO” value:
1. CCC/C=C/CO [928-95-0]  −1.842
2. CCCC(=O)SC [2432-51-1]  −0.956
3. Cc1cc(C(C)(C)C)c(O)c(C(C)(C)C)c1 [128-37-0]  −0.856
4. CC(=O)OCCC(C)C [123-92-2]  −0.725
5. CCOC(=O)CC [105-37-3]  −0.623
6. CCCCC=O [110-62-3]  −0.572
7. CCCOC(C)=O [109-60-4]  −0.491
8. CCCCC(=O)OCC [539-82-2]  −0.48
9. CCC(C)COC(C)=O (stereo not drawn) [624-41-9]  −0.433
10. CCCCC(=O)OC [624-24-8]  −0.406
11. CC(=O)OCc1ccccc1 [140-11-4]  −0.361
12. CCC/C=C/COC(C)=O [2497-18-9]  −0.313
13. CCCC(=O)CC [589-38-8]  −0.217
14. COC(=O)c1ccccc1N [134-20-3]  −0.009
15. CCCCCC(=O)OCC [123-66-0]  0.066
16. CCCCC(=O)C(C)=O [96-04-8]  0.142
17. CCCCC(CC)COC(C)=O (stereo not drawn) [103-09-3]  0.172
18. CCCCCC(=O)OC(C)C [2311-46-8]  0.238
19. C/C=C/C(=O)OC [623-43-8]  0.248
20. CCCCCCCCCC(=O)OCC [110-38-3]  0.281
21. CCCCCCCCOC(=O)CCCCC [4887-30-3]  0.392
22. CCCCCCCCOC(C)=O [112-14-1]  0.413
23. CCCCCO [71-41-0]  0.448
24. CSC(C)=O [1534-08-3]  0.488
25. CCCCCCCC=O [124-13-0]  0.871
26. CCCOC(=O)CCC [105-66-8]  0.88
27. CCCCCOC(C)=O [628-63-7]  0.882
28. CCCCCCCCOC(=O)CCC [110-39-4]  0.96
29. CCCCC(CC)CO (stereo not drawn) [104-76-7]  1.189
30. CCCCCC=O [66-25-1]  1.229
31. CCCCCCC1CCC(=O)O1 (stereo not drawn) [706-14-9]  1.247
32. CCCCC/C=C/C=O [2548-87-0]  1.76
33. C=CC(O)CC (stereo not drawn) [616-25-1]  1.773
34. CCCCCCCCCCOC(=O)CCC [5454-09-1]  1.804
35. CCC(=O)CC [96-22-0]  1.82
36. C=C[C@]1(C)CC[C@H](C(C)(C)O)O1 [5989-33-3]  1.869
37. CCOC(=O)C(C)CC (stereo not drawn) [7452-79-1]  1.959
38. CCCCOC(=O)CC(C)C [109-19-3]  2.005
39. CCCCOC(=O)CCC [109-21-7]  2.181
40. CC1(C)C2CC=C(C=O)C1C2 (stereo not drawn) [564-94-3]  2.588
41. CCCCCCC=O [111-71-7]  2.599
42. CCCCC(C)=O [591-78-6]  2.807
43. CCCCCC(CC)CC [5881-17-4]  2.894
44. CCCCCCC/C=C/C=O [3913-81-3]  3.694
45. CCCCCCCCC=O [124-19-6]  3.696
46. CC/C=C\C=O [1576-86-9]  4.16
47. CC/C=C/C=O [1576-87-0]  4.566

same assay, conditions: standard least squares, sweetness intensity independent of glucose

In order of rising “GLUCOSE t RATIO” value:
1. CCC/C=C/CO [928-95-0]  −1.521
2. Cc1cc(C(C)(C)C)c(O)c(C(C)(C)C)c1 [128-37-0]  −1.17
3. CCCC(=O)SC [2432-51-1]  −1.092
4. CCCCC(=O)OCC [539-82-2]  −0.802
5. CC(=O)OCCC(C)C [123-92-2]  −0.771
6. CCOC(=O)CC [105-37-3]  −0.674
7. CCCCC=O [110-62-3]  −0.568
8. CC(=O)OCc1ccccc1 [140-11-4]  −0.513
9. CCC(C)COC(C)=O (stereo not drawn) [624-41-9]  −0.494
10. CCCOC(C)=O [109-60-4]  −0.454
11. CCCC(=O)CC [589-38-8]  −0.427
12. CCCCC(=O)OC [624-24-8]  −0.416
13. CCC/C=C/COC(C)=O [2497-18-9]  −0.331
14. CCCCCC(=O)OC(C)C [2311-46-8]  −0.058
15. CCCCCC(=O)OCC [123-66-0]  −0.001
16. CCCCC(=O)C(C)=O [96-04-8]  0.002
17. CCCCCCCCCC(=O)OCC [110-38-3]  0.055
18. COC(=O)c1ccccc1N [134-20-3]  0.2
19. CCCCC(CC)COC(C)=O (stereo not drawn) [103-09-3]  0.21
20. CCCCCCCCOC(=O)CCCCC [4887-30-3]  0.254
21. CCCCCCCCOC(C)=O [112-14-1]  0.284
22. CCCCCO [71-41-0]  0.296
23. CSC(C)=O [1534-08-3]  0.429
24. C/C=C/C(=O)OC [623-43-8]  0.54
25. CCCOC(=O)CCC [105-66-8]  0.638
26. CCCCCCCC=O [124-13-0]  0.685
27. CCCCCOC(C)=O [628-63-7]  0.749
28. CCCCCCCCOC(=O)CCC [110-39-4]  0.814
29. CCCCCCC1CCC(=O)O1 (stereo not drawn) [706-14-9]  0.879
30. CCCCC(CC)CO (stereo not drawn) [104-76-7]  0.982
31. CCCCCC=O [66-25-1]  1.178
32. CCCCC/C=C/C=O [2548-87-0]  1.509
33. C=C[C@]1(C)CC[C@H](C(C)(C)O)O1 [5989-33-3]  1.561
34. CCC(=O)CC [96-22-0]  1.576
35. CCCCCCCCCCOC(=O)CCC [5454-09-1]  1.579
36. C=CC(O)CC (stereo not drawn) [616-25-1]  1.628
37. CCCCOC(=O)CC(C)C [109-19-3]  1.954
38. CCCCOC(=O)CCC [109-21-7]  1.961
39. CCOC(=O)C(C)CC (stereo not drawn) [7452-79-1]  1.993
40. CCCCCCC=O [111-71-7]  2.283
41. CC1(C)C2CC=C(C=O)C1C2 (stereo not drawn) [564-94-3]  2.455
42. CCCCCC(CC)CC [5881-17-4]  2.662
43. CCCCC(C)=O [591-78-6]  2.788
44. CCCCCCCCC=O [124-19-6]  3.402
45. CCCCCCC/C=C/C=O [3913-81-3]  3.494
46. CC/C=C\C=O [1576-86-9]  3.915
47. CC/C=C/C=O [1576-87-0]  4.301

same assay, conditions: standard least squares, sweetness intensity independent of sucrose

In order of rising “SUCROSE t RATIO” value:
1. C/C=C/C(=O)OC [623-43-8]  −1.396
2. CC(=O)OCc1ccccc1 [140-11-4]  −1.357
3. CCC(C)COC(C)=O (stereo not drawn) [624-41-9]  −1.323
4. CC1(C)C2CC=C(C=O)C1C2 (stereo not drawn) [564-94-3]  −1.322
5. CCCCC(CC)COC(C)=O (stereo not drawn) [103-09-3]  −1.053
6. CCOC(=O)C(C)CC (stereo not drawn) [7452-79-1]  −0.785
7. CCCCC(=O)C(C)=O [96-04-8]  −0.646
8. CCC/C=C/CO [928-95-0]  −0.516
9. CCCOC(C)=O [109-60-4]  −0.224
10. CCC/C=C/COC(C)=O [2497-18-9]  −0.056
11. CCCCC/C=C/C=O [2548-87-0]  0.067
12. CC(=O)OCCC(C)C [123-92-2]  0.108
13. CCCCCCCC=O [124-13-0]  0.169
14. CCCCCC=O [66-25-1]  0.21
15. CCCCCCCCC=O [124-19-6]  0.226
16. CCCCCOC(C)=O [628-63-7]  0.427
17. Cc1cc(C(C)(C)C)c(O)c(C(C)(C)C)c1 [128-37-0]  0.482
18. CCCC(=O)CC [589-38-8]  0.592
19. CCCCCC(CC)CC [5881-17-4]  0.608
20. CCCCC(=O)OC [624-24-8]  0.662
21. CCCCC(C)=O [591-78-6]  0.767
22. C=CC(O)CC (stereo not drawn) [616-25-1]  0.795
23. CCC(=O)CC [96-22-0]  0.912
24. CC/C=C\C=O [1576-86-9]  0.935
25. CCCCC=O [110-62-3]  0.997
26. CC/C=C/C=O [1576-87-0]  1.024
27. CSC(C)=O [1534-08-3]  1.035
28. CCCCCC(=O)OCC [123-66-0]  1.064
29. CCCCCCC=O [111-71-7]  1.342
30. COC(=O)c1ccccc1N [134-20-3]  1.386
31. CCCCCCC/C=C/C=O [3913-81-3]  1.411
32. CCCCOC(=O)CCC [109-21-7]  1.65
33. CCCCCCC1CCC(=O)O1 (stereo not drawn) [706-14-9]  1.65
34. CCCCOC(=O)CC(C)C [109-19-3]  1.662
35. CCCCCO [71-41-0]  1.938
36. C=C[C@]1(C)CC[C@H](C(C)(C)O)O1 [5989-33-3]  1.953
37. CCOC(=O)CC [105-37-3]  1.964
38. CCCC(=O)SC [2432-51-1]  2.033
39. CCCCC(CC)CO (stereo not drawn) [104-76-7]  2.046
40. CCCCCCCCCCOC(=O)CCC [5454-09-1]  2.085
41. CCCCCC(=O)OC(C)C [2311-46-8]  2.211
42. CCCCC(=O)OCC [539-82-2]  2.273
43. CCCCCCCCOC(C)=O [112-14-1]  2.292
44. CCCOC(=O)CCC [105-66-8]  2.421
45. CCCCCCCCCC(=O)OCC [110-38-3]  2.621
46. CCCCCCCCOC(=O)CCC [110-39-4]  2.645
47. CCCCCCCCOC(=O)CCCCC [4887-30-3]  2.71
